Results reported in PubChem BioAssay AID1963854 (Molecular Pharmacology Branch, DTP, NCI, 2024).

Test system: 186277-243-T-J2-PDC complex spheroid viability
Experiment: Anticancer human tumor 186277-243-T-J2-PDC patient-derived colon adenocarcinoma cell line growth inhibition [POLQ]
Details: for IC50: curve of first compound; for viability, T/C: stronger effect = lower value
How it was run: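 Patient-derived tumour cells were co-cultured with HUVEC and mesenchymal stem cells as multicellular spheroids at 37 °C. They were treated with POLQ inhibitors (novobiocin, ART-558, RP6685) alone or combined with other agents. Top concentrations were at or near clinical Cmax (otherwise 10 microM; SN-38 at 1 microM), decreasing in half-log steps.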

[1] = second compound 0.0316 µM, first compound 0.0316 µM
[2] = second compound 0.0316 µM, first compound 0.1 µM
[3] = second compound 0.0316 µM, first compound 0.316 µM
[4] = second compound 0.0316 µM, first compound 1 µM
[5] = second compound 0.0316 µM, first compound 3.16 µM
[6] = second compound 0.0316 µM, first compound 10 µM
[7] = second compound 0.1 µM, first compound 0.0316 µM
[8] = second compound 0.1 µM, first compound 0.1 µM
[9] = second compound 0.1 µM, first compound 0.316 µM
[10] = second compound 0.1 µM, first compound 1 µM
[11] = second compound 0.1 µM, first compound 3.16 µM
[12] = second compound 0.1 µM, first compound 10 µM
[13] = second compound 0.316 µM, first compound 0.0316 µM
[14] = second compound 0.316 µM, first compound 0.1 µM
[15] = second compound 0.316 µM, first compound 0.316 µM
[16] = second compound 0.316 µM, first compound 1 µM
[17] = second compound 0.316 µM, first compound 3.16 µM
[18] = second compound 0.316 µM, first compound 10 µM
[19] = second compound 1 µM, first compound 0.0316 µM
[20] = second compound 1 µM, first compound 0.1 µM
[21] = second compound 1 µM, first compound 0.316 µM
[22] = second compound 1 µM, first compound 1 µM
[23] = second compound 1 µM, first compound 3.16 µM
[24] = second compound 1 µM, first compound 10 µM
[25] = second compound 3.16 µM, first compound 0.0316 µM
[26] = second compound 3.16 µM, first compound 0.1 µM
[27] = second compound 3.16 µM, first compound 0.316 µM
[28] = second compound 3.16 µM, first compound 1 µM
[29] = second compound 3.16 µM, first compound 3.16 µM
[30] = second compound 3.16 µM, first compound 10 µM
[31] = second compound 10 µM, first compound 0.0316 µM
[32] = second compound 10 µM, first compound 0.1 µM
[33] = second compound 10 µM, first compound 0.316 µM
[34] = second compound 10 µM, first compound 1 µM
[35] = second compound 10 µM, first compound 3.16 µM
[36] = second compound 10 µM, first compound 10 µM
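Also: spheroids exposed to compounds for seven days.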
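For viability, T/C in this document: 100% = DMSO vehicle control viability.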

Question: Which results are given for COc1cccc2c1C(=O)c1c(O)c3c(c(O)c1C2=O)CC(O)(C(=O)CO)CC3OC1CC(N)C(O)C(C)O1 (stereo unspecified) + Nc1ccc(C#CCN(C(=O)Cc2ncc(C(F)(F)F)cc2C(F)(F)F)c2ccc(F)cc2)nn1?
Answer: IC50 (second compound 0.0316 µM): 255 nM; IC50 (second compound 0.1 µM): 253 nM; IC50 (second compound 0.316 µM): 258 nM; IC50 (second compound 1 µM): 236 nM; IC50 (second compound 3.16 µM): 231 nM; IC50 (second compound 10 µM): 173 nM; viability, T/C [1]: 144%; viability, T/C [2]: 110%; viability, T/C [3]: 37.2%; viability, T/C [4]: 1.35%; viability, T/C [5]: 0.27%; viability, T/C [6]: 1.66%; viability, T/C [7]: 169%; viability, T/C [8]: 107%; viability, T/C [9]: 39%; viability, T/C [10]: 1.35%; viability, T/C [11]: 0.37%; viability, T/C [12]: 1.4%; viability, T/C [13]: 156%; viability, T/C [14]: 106%; viability, T/C [15]: 40.7%; viability, T/C [16]: 1.12%; viability, T/C [17]: 1.33%; viability, T/C [18]: 0.64%; viability, T/C [19]: 171%; viability, T/C [20]: 106%; viability, T/C [21]: 32.5%; viability, T/C [22]: 1.58%; viability, T/C [23]: 1.81%; viability, T/C [24]: 2.38%; viability, T/C [25]: 153%; viability, T/C [26]: 101%; viability, T/C [27]: 32.4%; viability, T/C [28]: 0.94%; viability, T/C [29]: 1.21%; viability, T/C [30]: 1.74%; viability, T/C [31]: 131%; viability, T/C [32]: 76.4%; viability, T/C [33]: 21.8%; viability, T/C [34]: 1.09%; viability, T/C [35]: 1.27%; viability, T/C [36]: 0.63%

Question: With CC1COCCN1c1cc(C2(S(C)(=N)=O)CC2)nc(-c2ccnc3[nH]ccc23)n1 (stereo unspecified) + COC1C(OC(N)=O)C(O)C(Oc2ccc3c(O)c(NC(=O)c4ccc(O)c(CC=C(C)C)c4)c(=O)oc3c2C)OC1(C)C as the compound, how does the IC50 (second compound 0.0316 µM) read?
Answer: 793 nM

Question: What about the IC50 (second compound 0.1 µM) of the same compound?
Answer: 817 nM

Question: What about the IC50 (second compound 0.316 µM) of the same compound?
Answer: 798 nM

Question: What about the IC50 (second compound 1 µM) of the same compound?
Answer: 822 nM

Question: And the IC50 (second compound 3.16 µM)?
Answer: 788 nM

Question: And the IC50 (second compound 10 µM)?
Answer: 776 nM

Question: What about the viability, T/C [1] of the same compound?
Answer: 111%

Question: What about the viability, T/C [2] of the same compound?
Answer: 96.6%

Question: And the viability, T/C [3]?
Answer: 117%

Question: What about the viability, T/C [4] of the same compound?
Answer: 35.3%

Question: And the viability, T/C [5]?
Answer: 5.81%

Question: And the viability, T/C [6]?
Answer: 4.54%

Question: And the viability, T/C [7]?
Answer: 98%

Question: And the viability, T/C [8]?
Answer: 107%

Question: What about the viability, T/C [9] of the same compound?
Answer: 111%

Question: What about the viability, T/C [10] of the same compound?
Answer: 38.1%

Question: And the viability, T/C [11]?
Answer: 6.12%

Question: What about the viability, T/C [12] of the same compound?
Answer: 4.78%

Question: And the viability, T/C [13]?
Answer: 97.5%

Question: And the viability, T/C [14]?
Answer: 111%

Question: What about the viability, T/C [15] of the same compound?
Answer: 104%

Question: And the viability, T/C [16]?
Answer: 36.9%

Question: And the viability, T/C [17]?
Answer: 6.74%

Question: What about the viability, T/C [18] of the same compound?
Answer: 4.71%

Question: What about the viability, T/C [19] of the same compound?
Answer: 95.8%

Question: What about the viability, T/C [20] of the same compound?
Answer: 98.2%

Question: And the viability, T/C [21]?
Answer: 105%

Question: What about the viability, T/C [22] of the same compound?
Answer: 39.8%

Question: And the viability, T/C [23]?
Answer: 6.98%

Question: And the viability, T/C [24]?
Answer: 4.23%

Question: What about the viability, T/C [25] of the same compound?
Answer: 94.8%

Question: And the viability, T/C [26]?
Answer: 100%

Question: And the viability, T/C [27]?
Answer: 104%

Question: And the viability, T/C [28]?
Answer: 37.1%

Question: And the viability, T/C [29]?
Answer: 6.45%

Question: And the viability, T/C [30]?
Answer: 5.04%

Question: And the viability, T/C [31]?
Answer: 108%

Question: And the viability, T/C [32]?
Answer: 104%

Question: What about the viability, T/C [33] of the same compound?
Answer: 106%

Question: What about the viability, T/C [34] of the same compound?
Answer: 34.1%

Question: What about the viability, T/C [35] of the same compound?
Answer: 7.67%

Question: And the viability, T/C [36]?
Answer: 5.44%

Question: What does the source list for COc1cccc(OCCCN)c1-c1cc(Nc2cnc(C#N)cn2)n[nH]1 + Nc1ccc(C#CCN(C(=O)Cc2ncc(C(F)(F)F)cc2C(F)(F)F)c2ccc(F)cc2)nn1?
Answer: IC50 (second compound 0.0316 µM): < 3.16 nM; IC50 (second compound 0.1 µM): < 3.16 nM; IC50 (second compound 0.316 µM): < 3.16 nM; IC50 (second compound 1 µM): < 3.16 nM; IC50 (second compound 3.16 µM): < 3.16 nM; IC50 (second compound 10 µM): < 3.16 nM; viability, T/C (second compound 0.0316 µM, first compound 0.00316 µM): 47%; viability, T/C (second compound 0.0316 µM, first compound 0.01 µM): 13.1%; viability, T/C [1]: 10.3%; viability, T/C [2]: 9.69%; viability, T/C [3]: 9.94%; viability, T/C [4]: 10.9%; viability, T/C (second compound 0.1 µM, first compound 0.00316 µM): 38.6%; viability, T/C (second compound 0.1 µM, first compound 0.01 µM): 13.4%; viability, T/C [7]: 9.59%; viability, T/C [8]: 9.13%; viability, T/C [9]: 8.61%; viability, T/C [10]: 9.39%; viability, T/C (second compound 0.316 µM, first compound 0.00316 µM): 37.4%; viability, T/C (second compound 0.316 µM, first compound 0.01 µM): 13.8%; viability, T/C [13]: 9.62%; viability, T/C [14]: 8.58%; viability, T/C [15]: 10.1%; viability, T/C [16]: 9.81%; viability, T/C (second compound 1 µM, first compound 0.00316 µM): 37.2%; viability, T/C (second compound 1 µM, first compound 0.01 µM): 11.3%; viability, T/C [19]: 9.81%; viability, T/C [20]: 8.9%; viability, T/C [21]: 10.1%; viability, T/C [22]: 9.12%; viability, T/C (second compound 3.16 µM, first compound 0.00316 µM): 27.5%; viability, T/C (second compound 3.16 µM, first compound 0.01 µM): 10.3%; viability, T/C [25]: 9.29%; viability, T/C [26]: 8.63%; viability, T/C [27]: 10.8%; viability, T/C [28]: 10.4%; viability, T/C (second compound 10 µM, first compound 0.00316 µM): 17.6%; viability, T/C (second compound 10 µM, first compound 0.01 µM): 8.38%; viability, T/C [31]: 9.28%; viability, T/C [32]: 8.09%; viability, T/C [33]: 9.97%; viability, T/C [34]: 9.55%
